Assay: Isotope tracer infusion: circulatory turnover flux (Fcirc)
Assay type: in vivo, mouse
Conditions: fasted mice
Excerpt: To confirm this idea, and to test whether the same might be true of circulating 3HB and acetoacetate, a set of isotope-tracer infusion experiments was devised. The circulatory turnover flux (Fcirc) of a given metabolite refers to the rate at which tissues collectively take up the metabolite from arterial circulation; alternatively, Fcirc can be defined as the rate at which tissues collectively excrete the metabolite into the venous circulation, as these two rates are equal at steady state in minimally perturbative tracer infusions.
Isotope tracer infusion. For lactate circulatory turnover flux measurements, 10-14 weeks old C57BL/6 mice were catheterized via both left carotid artery and right jugular vein, as non-perturbative arterial blood sampling is required for precise measurement of circulating lactate labeling. Mice were allowed to recover for 5 days. Mice were fasted from ZT2 to ZT6.5. Sodium [2-^2H] or [U-^13C]lactate solution was diluted to 5% w/w in water, and infused into the double catheterized mice from ZT6.5 to ZT9 to pseudo steady state. Arterial blood was sampled to calculate the turnover rate for ^2H or ^13C lactate.
For other tracing experiments, 10-14 weeks old C57BL6/J mice or mice bearing tumors (KPC flank allografts or Kras^LSL-G12D/+Trp53^−/−Pdx-1-Cre GEMM, tumor sizes ˜150 mm^3) were catheterized via right jugular vein. Mice were allowed to recover from surgery for 3-5 days. For 3HB circulatory turnover flux experiments, mice were fasted from ZT2 to ZT6.5, and [3,4,4,4-^2H] or [U-^13C]3HB were infused to catheterized mice from ZT6.5 to ZT9. Tail blood was sampled to calculate the turnover rate for ^2H or ^13C 3HB.
Metabolic flux quantitation. Circulatory turnover flux, Fcirc was calculated as previously described (Hui et al., 2017), using arterial serum for lactate due to its substantial arterial-venous labeling gradient and tail vein serum for other nutrients:
[formula] R is the infusion rate of the labeled tracer and L is the fractional enrichment of infused labeled form of the metabolite tracer. Fcirc values of ^2H-labeled metabolites were corrected for kinetic isotope effect (KIE, determined from the enzymatic assays) by multiplying the observed Fcirc by KIE value of ^2H tracer.

| circulatory turnover flux | Structure (SMILES) |
| --- | --- |
| 380 nmol/g/min | [13CH3][13CH](O)[13C](=O)[O-].[Na+] (stereo not shown) [^13C-labeled lactate, Sodium [U-^13C]lactate] |
| ~40 nmol/g/min | [13CH3][13CH](O)[13CH2][13C](=O)O (stereo not shown) [^13C-labeled 3HB, [U-^13C]3HB] |
| ~40 nmol/g/min | [2H]C([2H])([2H])C([2H])(O)CC(=O)O (stereo not shown) [^2H-labeled 3HB, [3,4,4,4-^2H]3HB] |
| 550 nmol/g/min | [2H]C(C)(O)C(=O)[O-].[Na+] (stereo not shown) [^2H-labeled lactate, Sodium [2-^2H]lactate] |

From patent US12653836B2, “Ketogenic diet and ketone supplementation for cancer therapy” (The Trustees of Princeton University, priority 2020, dated 2026)
